Active and inactive are the calls of the source.
What was measured:
[1] = target: Voltage-dependent T-type calcium channel subunit alpha-1H (Homo sapiens, UniProt O95180); assay type: functional;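 further: channel activity triggered by adding a high calcium stimulation buffer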
[2] = target: Multidrug resistance protein CDR1 (Candida albicans, UniProt P43071); experiment: inhibition of Nile Red efflux via Candida CDR1 – S. cerevisiae AD1-8u, singleplex, Cherry Pick1 hits, dose response (AID 588606); assay type: functional
Chain of Multidrug resistance protein CDR1 (P43071 whole entry, looked up): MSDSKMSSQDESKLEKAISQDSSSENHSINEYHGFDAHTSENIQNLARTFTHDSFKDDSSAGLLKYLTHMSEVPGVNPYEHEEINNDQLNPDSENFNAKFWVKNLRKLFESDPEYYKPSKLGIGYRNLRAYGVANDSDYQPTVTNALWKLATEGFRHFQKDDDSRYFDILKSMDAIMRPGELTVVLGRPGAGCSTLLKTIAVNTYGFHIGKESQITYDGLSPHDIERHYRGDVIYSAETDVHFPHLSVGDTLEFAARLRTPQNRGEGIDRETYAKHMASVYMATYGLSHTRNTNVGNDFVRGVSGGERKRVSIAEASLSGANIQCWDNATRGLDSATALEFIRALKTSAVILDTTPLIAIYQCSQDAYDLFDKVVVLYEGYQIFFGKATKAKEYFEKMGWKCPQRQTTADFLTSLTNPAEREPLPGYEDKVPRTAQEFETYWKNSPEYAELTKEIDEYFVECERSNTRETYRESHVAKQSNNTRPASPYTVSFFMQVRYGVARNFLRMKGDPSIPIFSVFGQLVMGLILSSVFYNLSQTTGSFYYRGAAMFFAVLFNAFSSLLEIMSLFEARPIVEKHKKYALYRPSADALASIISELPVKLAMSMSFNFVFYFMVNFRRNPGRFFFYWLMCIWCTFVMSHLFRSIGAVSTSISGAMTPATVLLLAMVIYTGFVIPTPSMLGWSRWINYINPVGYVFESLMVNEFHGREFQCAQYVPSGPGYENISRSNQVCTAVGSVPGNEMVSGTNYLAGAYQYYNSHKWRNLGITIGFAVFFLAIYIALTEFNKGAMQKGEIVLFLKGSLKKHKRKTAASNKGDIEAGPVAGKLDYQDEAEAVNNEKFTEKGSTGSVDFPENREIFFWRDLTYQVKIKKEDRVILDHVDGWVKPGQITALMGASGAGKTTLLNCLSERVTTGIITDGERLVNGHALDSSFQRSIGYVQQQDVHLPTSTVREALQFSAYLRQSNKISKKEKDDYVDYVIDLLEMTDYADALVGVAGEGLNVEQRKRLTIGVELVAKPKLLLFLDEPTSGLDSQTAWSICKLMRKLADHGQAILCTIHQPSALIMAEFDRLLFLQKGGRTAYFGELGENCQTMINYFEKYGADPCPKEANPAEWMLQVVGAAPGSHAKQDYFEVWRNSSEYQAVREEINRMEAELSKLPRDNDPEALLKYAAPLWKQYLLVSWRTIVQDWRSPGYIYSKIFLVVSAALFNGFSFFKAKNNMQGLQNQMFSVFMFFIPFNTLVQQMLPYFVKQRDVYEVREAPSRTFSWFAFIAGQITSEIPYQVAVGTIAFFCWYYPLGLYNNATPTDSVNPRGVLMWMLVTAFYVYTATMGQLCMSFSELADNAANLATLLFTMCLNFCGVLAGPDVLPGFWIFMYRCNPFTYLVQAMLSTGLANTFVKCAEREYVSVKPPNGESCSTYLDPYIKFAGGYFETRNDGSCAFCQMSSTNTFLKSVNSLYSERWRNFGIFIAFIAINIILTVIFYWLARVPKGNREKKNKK

[3] = Mcl1-dependent cancer cell viability – HMC-1-8 cells, luminescence, dry powder, selectivity assay for A1 inhibitor project, dose response (AID 504415); assay type: functional, cell-based; conditions: Homo sapiens
cells = assay type: functional
BJ [4] = experiment: BJ-TERT fibroblast viability loss – cell-based, RAS-independent, luminescence, dose response (AID 1933); assay type: functional; conditions: Homo sapiens
[5] = HepG2 cell cytotoxicity, dose response, cytotoxicity control for non-replicating M. tuberculosis project (AID 489018); assay type: functional; conditions: Mycobacterium tuberculosis
[6] = blockers of HIV-1 ZM109 envelope-driven cell-cell fusion – HeLa effector, CEM target cells, luciferase, cherry-pick, dose response (AID 652058); assay type: functional, cell-based;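 further: luciferase signal from HIV-1 Env mediated cell-cell fusion of effector and target cells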
[7] = Vero E6 cell cytotoxicity, dose response, cytotoxicity control for non-replicating M. tuberculosis project, secondary assay (AID 492998); assay type: functional, VeroE6; conditions: Vero C1008
Beta Lactamase = Beta Lactamase (Pseudomonas aeruginosa, UniProt Q932Y6); experiment: BLA reporter interference, concentration series – BLA reporter cells, FRET fluorescence, artefact control for TLR9-MyD88 binding inhibitor project, dose response (AID 588341); assay type: cell-based;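 further: cell based assay in CHO-K1 cells stably expressing beta-lactamase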
Chain of Beta Lactamase (Q932Y6 whole entry, the tested form may be a part): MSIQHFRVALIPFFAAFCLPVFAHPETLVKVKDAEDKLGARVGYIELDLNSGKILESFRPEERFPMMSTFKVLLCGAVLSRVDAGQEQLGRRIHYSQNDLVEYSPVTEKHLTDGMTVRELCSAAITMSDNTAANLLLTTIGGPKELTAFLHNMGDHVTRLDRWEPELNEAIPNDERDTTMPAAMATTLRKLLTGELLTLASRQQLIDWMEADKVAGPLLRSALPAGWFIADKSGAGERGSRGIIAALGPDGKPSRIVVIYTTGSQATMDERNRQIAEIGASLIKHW

[8] = viability loss in CEM21 cells – cell-based, CellTiter-Glo luminescence, cherry-picked, cytotoxicity control for viral fusion inhibitor project, dose response (AID 652042); assay type: functional;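 further: potency for signal decrease meaning cytotoxicity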
[9] = Luminescence Cell-Based Dose Response HTS to Identify Inhibitors of 5'UTR Stem-Loop Driven Prion Protein mRNA Translation in H4 Neuroglioblastoma Cells. [Related pubchem assays: 1827 (Project Summary), 1813 (Primary HTS)]; assay type: functional
BJ [10] = experiment: BJ-TERT-LT-ST fibroblast viability loss – cell-based, RAS-independent, luminescence, dose response (AID 1935); assay type: functional; conditions: Homo sapiens;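 further: BJ fibroblasts immortalized with TERT plus LT and ST oncogenes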
[11] = target: T1, Mitochondrial peptide methionine sulfoxide reductase (Bos taurus, UniProt P54149); assay type: functional;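 further: absorbance read-out, biochemical high-throughput dose-response screen for MsrA inhibitors, confirmatory; recombinant bovine MsrA coupled to E. coli TrxB with NADPH and selenocystamine; potency is for inhibitors of MsrA activity on DMSO substrate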
T1 sequence (P54149 whole entry): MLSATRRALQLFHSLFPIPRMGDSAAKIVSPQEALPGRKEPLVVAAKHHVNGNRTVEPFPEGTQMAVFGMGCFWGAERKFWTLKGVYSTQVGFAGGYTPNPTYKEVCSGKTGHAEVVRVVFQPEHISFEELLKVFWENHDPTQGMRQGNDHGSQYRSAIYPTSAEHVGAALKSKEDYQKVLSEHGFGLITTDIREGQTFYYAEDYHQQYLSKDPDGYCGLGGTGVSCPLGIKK

BJ [12] = experiment: cells; assay type: functional, cell-based; conditions: Homo sapiens
[13] = target: Aryl hydrocarbon receptor (Homo sapiens, UniProt P35869); experiment: Luminescence-based cell-based high throughput dose response assay for activators of the Aryl Hydrocarbon Receptor (AHR). [Related pubchem assays: 2796 (Primary screen (AHR activators in singlicate)), 2845 (Confirmation screen (AHR activators in triplicate)), 434939 (Counterscreen (PXR activators in triplicate)), 2804 (Summary (AHR activators))]; assay type: ADME
Chain of Aryl hydrocarbon receptor (P35869 whole entry): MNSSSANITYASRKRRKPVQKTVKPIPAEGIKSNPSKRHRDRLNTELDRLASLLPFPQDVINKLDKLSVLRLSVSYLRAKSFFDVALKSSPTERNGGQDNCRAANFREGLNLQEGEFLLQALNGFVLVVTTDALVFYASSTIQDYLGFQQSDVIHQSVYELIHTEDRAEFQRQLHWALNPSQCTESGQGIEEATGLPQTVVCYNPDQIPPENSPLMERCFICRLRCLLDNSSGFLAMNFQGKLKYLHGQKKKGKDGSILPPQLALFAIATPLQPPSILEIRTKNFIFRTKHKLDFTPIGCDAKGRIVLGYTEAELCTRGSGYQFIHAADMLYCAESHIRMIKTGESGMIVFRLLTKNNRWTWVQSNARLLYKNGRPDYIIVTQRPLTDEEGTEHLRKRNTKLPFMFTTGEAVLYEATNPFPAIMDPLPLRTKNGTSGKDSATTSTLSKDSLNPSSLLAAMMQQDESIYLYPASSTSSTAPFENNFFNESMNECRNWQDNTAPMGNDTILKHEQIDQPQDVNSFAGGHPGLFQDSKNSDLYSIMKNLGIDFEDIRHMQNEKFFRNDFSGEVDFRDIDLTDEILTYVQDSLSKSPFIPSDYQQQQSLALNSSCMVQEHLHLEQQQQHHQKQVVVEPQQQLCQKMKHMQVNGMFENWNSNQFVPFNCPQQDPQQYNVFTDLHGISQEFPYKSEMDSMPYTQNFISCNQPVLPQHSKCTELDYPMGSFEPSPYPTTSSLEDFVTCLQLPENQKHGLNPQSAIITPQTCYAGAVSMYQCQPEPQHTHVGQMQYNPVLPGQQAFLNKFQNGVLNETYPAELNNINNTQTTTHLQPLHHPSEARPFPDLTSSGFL

[14] = HEK-293T viability loss after treatment – luminescence, T-cell screen hits, cytotoxicity control for TCR NF-kB inhibitor project, dose response (AID 489026); assay type: functional, cell-based;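 further: cells exposed to compound about 14 hours before the viability readout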
[15] = luciferase reporter signal suppression in cells – H4 neuroglioma cells, luminescence, dose response (AID 1990); assay type: functional, cell-based
[16] = THP-1 cell cytotoxicity, dose response, cytotoxicity control for non-replicating M. tuberculosis project (AID 489025); assay type: functional
[17] = blockers of HIV-1 envelope-mediated cell-cell fusion – cherry-pick, dose response (AID 652057); assay type: functional, cell-based
[18] = off-target signal loss in HeLa-CEM21 co-culture – HeLa F-luc CTL cells, cherry-picked, counter-screen for HIV-1 Env fusion inhibitor project, dose response (AID 652040); assay type: functional, cell-based;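 further: potency for signal decrease marking cytotoxic or nonspecific inhibition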
INS1 = experiment: INS-1E survival protection against cytokine death – cell-based, luminescence, retest, dose response (AID 449756); assay type: functional; conditions: Rattus norvegicus;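 further: cell death triggered by IL-1 beta plus TNF-alpha plus IFN-gamma mixture; protective hits raise ATP signal compared with cytokine alone wells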
[19] = DRD fibroblast viability loss – cell-based, non-viral oncogenic, luminescence, dose response (AID 1934); assay type: functional; conditions: Homo sapiens
Bcl-2-related protein A1 = target: T2, Bcl-2-related protein A1 (Mus musculus, UniProt Q07440); assay type: functional;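 further: confirmatory dose–response counterscreen on Bfl-1, used to check hits from a UBC13 polyubiquitin inhibitor campaign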
T2 sequence (Q07440 whole entry): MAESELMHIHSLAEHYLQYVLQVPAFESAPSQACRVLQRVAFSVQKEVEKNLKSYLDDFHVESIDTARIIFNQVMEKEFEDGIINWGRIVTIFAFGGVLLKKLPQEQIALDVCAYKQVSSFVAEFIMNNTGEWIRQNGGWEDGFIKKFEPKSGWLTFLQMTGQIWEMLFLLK

CHO = CHO cell viability loss, potency – luminescence, cytotoxicity control for TLR9-MyD88 binding inhibitor project, dose response (AID 588339); assay type: functional, cell-based, hamster; conditions: Cricetulus griseus;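 further: CHO cells stably coexpressing TLR9 and MyD88 fusions from primary screen; compound exposure lasted 48 hours before viability readout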
BJ [20] = experiment: growth inhibition of engineered Ras-driven BJ cells – cell-based, alamar blue fluorescence, cherrypicked samples, dose response (AID 2631); assay type: functional; conditions: Homo sapiens;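 further: confirmatory dose-response assay in RAS-dependent BJ fibroblasts engineered with TERT, LT and ST, with cytotoxicity read by fluorescence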
[21] = target: T3, Ubiquitin-conjugating enzyme E2 N (Homo sapiens, UniProt P61088); assay type: functional
T3 sequence (P61088 whole entry): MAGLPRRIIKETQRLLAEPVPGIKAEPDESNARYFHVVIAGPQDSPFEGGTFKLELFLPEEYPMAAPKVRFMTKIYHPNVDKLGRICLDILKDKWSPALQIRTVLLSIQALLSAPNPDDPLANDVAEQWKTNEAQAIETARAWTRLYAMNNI

[22] = alpha-synuclein stem-loop luciferase translation blockers – H4 neuroglioma cells, luminescence, confirmation (AID 1988); assay type: functional, cell-based
[23] = HIV-1 AD8 envelope cell-cell fusion blockers – cherry-pick, dose response (AID 652062); assay type: functional, cell-based;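 further: luciferase signal from cell-cell fusion driven by HIV-1 clade B AD8 Env; potency is for inhibitors of fusion seen as a drop in luminescence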
[24] = target: T3, Ubiquitin-conjugating enzyme E2 N; assay type: functional; remark: listed apart in the source

Chain of Voltage-dependent T-type calcium channel subunit alpha-1H (O95180 whole entry): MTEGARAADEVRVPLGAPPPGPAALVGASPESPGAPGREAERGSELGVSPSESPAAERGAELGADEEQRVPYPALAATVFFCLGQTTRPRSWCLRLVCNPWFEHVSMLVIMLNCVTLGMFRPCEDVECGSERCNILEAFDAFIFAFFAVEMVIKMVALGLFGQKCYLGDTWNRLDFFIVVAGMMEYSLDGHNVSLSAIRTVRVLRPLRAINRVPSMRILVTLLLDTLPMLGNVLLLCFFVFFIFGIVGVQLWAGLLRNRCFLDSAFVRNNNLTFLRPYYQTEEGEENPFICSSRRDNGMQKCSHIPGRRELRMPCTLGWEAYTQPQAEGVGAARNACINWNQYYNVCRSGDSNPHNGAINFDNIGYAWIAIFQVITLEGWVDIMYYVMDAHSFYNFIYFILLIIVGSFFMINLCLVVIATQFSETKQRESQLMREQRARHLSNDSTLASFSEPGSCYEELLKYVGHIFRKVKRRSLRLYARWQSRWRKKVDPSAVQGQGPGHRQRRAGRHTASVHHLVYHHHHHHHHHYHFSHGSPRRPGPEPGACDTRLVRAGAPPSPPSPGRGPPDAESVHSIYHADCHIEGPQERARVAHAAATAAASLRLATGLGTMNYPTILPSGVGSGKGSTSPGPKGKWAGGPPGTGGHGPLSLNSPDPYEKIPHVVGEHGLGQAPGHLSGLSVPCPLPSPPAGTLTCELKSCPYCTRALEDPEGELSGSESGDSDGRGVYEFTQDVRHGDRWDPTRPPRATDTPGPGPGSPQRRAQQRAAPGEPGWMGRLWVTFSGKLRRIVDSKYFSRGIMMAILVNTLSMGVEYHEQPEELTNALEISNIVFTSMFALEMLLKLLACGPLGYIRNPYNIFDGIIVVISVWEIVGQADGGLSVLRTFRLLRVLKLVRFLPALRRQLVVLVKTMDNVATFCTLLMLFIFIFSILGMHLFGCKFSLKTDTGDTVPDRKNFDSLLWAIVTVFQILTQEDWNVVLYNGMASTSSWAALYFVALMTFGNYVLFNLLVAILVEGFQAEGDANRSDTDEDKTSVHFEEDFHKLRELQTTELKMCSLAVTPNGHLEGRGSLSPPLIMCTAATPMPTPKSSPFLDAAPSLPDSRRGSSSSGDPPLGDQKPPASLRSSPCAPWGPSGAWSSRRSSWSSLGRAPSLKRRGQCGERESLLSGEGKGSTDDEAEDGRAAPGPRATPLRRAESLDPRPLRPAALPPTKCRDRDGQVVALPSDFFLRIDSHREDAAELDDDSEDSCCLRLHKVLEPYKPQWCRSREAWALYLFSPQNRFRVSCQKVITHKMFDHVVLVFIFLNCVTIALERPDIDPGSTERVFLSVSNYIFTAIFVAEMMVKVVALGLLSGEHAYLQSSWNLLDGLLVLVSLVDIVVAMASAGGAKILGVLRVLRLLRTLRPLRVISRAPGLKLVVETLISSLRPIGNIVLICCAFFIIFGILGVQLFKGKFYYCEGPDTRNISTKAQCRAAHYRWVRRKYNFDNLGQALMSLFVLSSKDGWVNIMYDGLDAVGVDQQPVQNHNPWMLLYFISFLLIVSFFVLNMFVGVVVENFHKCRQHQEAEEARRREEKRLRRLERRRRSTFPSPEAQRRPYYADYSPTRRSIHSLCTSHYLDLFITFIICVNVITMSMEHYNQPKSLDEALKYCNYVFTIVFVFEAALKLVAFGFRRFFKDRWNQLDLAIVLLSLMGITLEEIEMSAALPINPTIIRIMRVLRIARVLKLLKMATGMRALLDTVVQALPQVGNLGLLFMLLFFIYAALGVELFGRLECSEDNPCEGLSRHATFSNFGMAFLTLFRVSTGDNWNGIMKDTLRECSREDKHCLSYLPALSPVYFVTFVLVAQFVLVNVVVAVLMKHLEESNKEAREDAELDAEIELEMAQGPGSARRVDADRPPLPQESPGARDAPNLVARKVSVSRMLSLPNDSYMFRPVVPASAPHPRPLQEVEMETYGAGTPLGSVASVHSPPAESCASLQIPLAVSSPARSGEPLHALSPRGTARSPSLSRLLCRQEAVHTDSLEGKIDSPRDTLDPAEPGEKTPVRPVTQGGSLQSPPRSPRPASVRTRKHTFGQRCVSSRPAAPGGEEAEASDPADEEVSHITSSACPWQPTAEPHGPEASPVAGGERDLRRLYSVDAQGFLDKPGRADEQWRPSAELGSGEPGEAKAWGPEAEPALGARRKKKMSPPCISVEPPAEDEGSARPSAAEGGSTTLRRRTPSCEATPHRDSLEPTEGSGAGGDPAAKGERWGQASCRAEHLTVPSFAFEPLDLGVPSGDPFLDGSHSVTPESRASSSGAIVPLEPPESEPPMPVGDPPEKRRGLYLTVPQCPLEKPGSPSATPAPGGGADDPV

O=C(CSc1nnc(Cc2cccs2)n1Cc1ccco1)Nc1ccc(Br)cc1
active: EC50 [1] 3.12 µM | EC50 [2] 9 nM

O=[N+]([O-])c1cnc2ccccc2c1Sc1ccccc1
active: AC50 [3] 39.2 µM

COc1ccc2nc(C)cc(N/N=C/c3ccc(F)cc3)c2c1
inactive: IC50 [11] 12.8 µM | IC50 [14] > 80 µM
active: IC50 (cells) 3.12 µM | CC50 [5] 15.2 µM | AC50 [6] 8.14 µM | CC50 [7] 570 nM | IC50 (Beta Lactamase) 2.13 µM | AC50 [8] 2.65 µM | EC50 [13] > 377 nM | EC50 [15] 8.44 µM | CC50 [16] 1.66 µM | AC50 [17] 8.26 µM | AC50 [18] 6.09 µM | AC50 (INS1) 6.46 µM | EC50 [19] 4.92 µM | IC50 (Bcl-2-related protein A1) 17 µM | IC50 (CHO) 6.2 µM | EC50 (BJ [20]) 317 nM | IC50 [21] 11.8 µM | EC50 [22] 9.29 µM | AC50 [23] 14.7 µM | IC50 [24] 10.1 µM
inconclusive: EC50 (BJ [4]) 1.24 µM | EC50 (BJ [10]) 2.66 µM | EC50 (BJ [12]) 5.09 µM
> 120 µM (not active): EC50 [9]

— ChEMBL document CHEMBL1201862, “PubChem BioAssay data set” (2004)
